Experimental findings from ChEMBL document CHEMBL1139019, “Tricyclic azepine derivatives: pyrimido[4,5-b]-1,4-benzoxazepines as a novel class of epidermal growth factor receptor kinase inhibitors” (Bioorg Med Chem Lett, 2006) are described below.

In assay [1] the target is T1, Epidermal growth factor receptor (Homo sapiens, UniProt P00533).
In assay [2] the target is T1, Epidermal growth factor receptor. Description: Inhibition of EGFR autophosphorylation in DiFi cells.

T1 sequence (P00533 whole entry): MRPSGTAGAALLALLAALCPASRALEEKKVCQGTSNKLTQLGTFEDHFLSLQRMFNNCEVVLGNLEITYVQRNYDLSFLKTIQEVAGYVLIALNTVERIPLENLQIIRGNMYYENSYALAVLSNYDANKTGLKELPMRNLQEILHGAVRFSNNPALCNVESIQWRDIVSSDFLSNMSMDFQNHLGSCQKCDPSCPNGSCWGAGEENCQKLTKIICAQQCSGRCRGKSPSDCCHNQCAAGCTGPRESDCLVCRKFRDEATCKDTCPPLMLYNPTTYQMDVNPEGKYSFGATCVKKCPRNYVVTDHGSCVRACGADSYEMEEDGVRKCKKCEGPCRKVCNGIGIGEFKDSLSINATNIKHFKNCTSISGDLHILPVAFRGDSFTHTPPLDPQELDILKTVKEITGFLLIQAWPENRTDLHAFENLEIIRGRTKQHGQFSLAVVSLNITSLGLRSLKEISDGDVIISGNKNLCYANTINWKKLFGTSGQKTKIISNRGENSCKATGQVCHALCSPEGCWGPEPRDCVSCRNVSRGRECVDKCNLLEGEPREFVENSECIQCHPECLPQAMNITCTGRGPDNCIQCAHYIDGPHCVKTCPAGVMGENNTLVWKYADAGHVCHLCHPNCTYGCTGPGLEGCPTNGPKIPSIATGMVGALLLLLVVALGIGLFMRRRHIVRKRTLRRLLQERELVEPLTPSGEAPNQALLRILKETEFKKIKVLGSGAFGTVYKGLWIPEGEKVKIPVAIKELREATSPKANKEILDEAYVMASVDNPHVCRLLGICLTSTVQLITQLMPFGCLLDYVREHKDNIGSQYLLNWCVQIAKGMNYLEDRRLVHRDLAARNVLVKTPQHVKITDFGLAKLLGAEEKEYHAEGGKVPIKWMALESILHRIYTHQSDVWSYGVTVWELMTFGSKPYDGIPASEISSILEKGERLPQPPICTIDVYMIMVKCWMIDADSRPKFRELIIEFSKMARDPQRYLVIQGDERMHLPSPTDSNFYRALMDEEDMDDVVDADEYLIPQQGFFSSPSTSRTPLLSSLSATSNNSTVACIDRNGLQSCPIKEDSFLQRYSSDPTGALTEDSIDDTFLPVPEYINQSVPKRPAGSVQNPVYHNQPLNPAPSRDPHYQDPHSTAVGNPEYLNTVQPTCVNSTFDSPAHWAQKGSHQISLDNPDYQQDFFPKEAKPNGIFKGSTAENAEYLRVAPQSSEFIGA

As usually defined, the IC50 is the concentration needed to halve the response being measured. A low value points to inhibition by little substance. Regarding `CS(=O)(=O)Nc1ccc2c(c1)CNc1c(Nc3ccc(F)c(Cl)c3)ncnc1O2`, the concentration for half-maximal inhibition (IC50) in assay [1] was > 10 µM.
For the compound `COc1cc2c(cc1OC)Oc1ncnc(Nc3ccc(F)c(Cl)c3)c1NC2`, the values for the IC50 in assay [2] and in assay [1] were 0.69 µM and 1.2 µM, respectively.
As for `Nc1ccc2c(c1)CNc1c(Nc3cccc(Br)c3)ncnc1O2`, the half-inhibitory concentration (IC50) in assay [2] was > 30 µM; in assay [1], 1.7 µM.
Take `Fc1ccc2c(c1)CNc1c(Nc3ccccc3)ncnc1O2`: in assay [1], the IC50 came to 7 µM.
Take `FC(F)(F)Oc1ccc2c(c1)CNc1c(Nc3cccc(Br)c3)ncnc1O2`: the concentration for half-maximal inhibition (IC50) in assay [1] is > 10 µM.
On the same count and under the same terms, to `Fc1ccc2c(c1)CNc1c(Nc3ccc(Cl)cc3)ncnc1O2` belongs > 10 µM.
Consider `C=CC(=O)Nc1ccc2c(c1)CNc1c(Nc3ccc(F)c(Cl)c3)ncnc1O2`, for which the IC50 in assay [2] stood at 8.9 µM; in assay [1] it was 4.9 µM.
The matching figures for `COc1cc(OC)c2c(c1)Oc1ncnc(Nc3cccc(Br)c3)c1NC2`: > 30 µM and 6.3 µM.
The matching figures for `COc1ccc2c(c1)CNc1c(NCc3ccccc3)ncnc1O2`: 8.5 µM and 2 µM.
For `COc1ccc2c(c1)Oc1ncnc(Nc3cccc(Br)c3)c1NC2`, the IC50 in assay [2] amounted to 1.9 µM; in assay [1] it was 3 µM.
For `Fc1ccc2c(c1)CNc1c(Nc3cccc(Br)c3)ncnc1O2` the same measures were 6.9 µM and 1.5 µM.
The matching figures for `O=C(O)c1ccc2c(c1)CNc1c(Nc3cccc(Br)c3)ncnc1O2`: > 30 µM and 1 µM.
`COc1ccc2c(c1)CNc1c(Nc3ccc(Cl)cc3)ncnc1O2`: the IC50 in assay [1] turned out to be 5.8 µM.
For `Fc1ccc(Nc2ncnc3c2NCc2cc(Cl)ccc2O3)cc1Cl`, the half-inhibitory concentration (IC50) in assay [2] stood at 4.3 µM; in assay [1], 1 µM.
On to `Nc1ccc2c(c1)CNc1c(Nc3ccc(F)c(Cl)c3)ncnc1O2`, for which the IC50 in assay [2] is 9.1 µM; in assay [1] it was 3.7 µM.
The matching figures for `Fc1ccc(Nc2ncnc3c2NCc2cc(Br)ccc2O3)cc1Cl`: 8.4 µM and 2 µM.
With `Fc1ccc2c(c1)CNc1c(Nc3cccc(-c4ccccc4)c3)ncnc1O2`, the 50% inhibitory concentration (IC50) came out at 9.9 µM in assay [2] and 2 µM in assay [1].
For `COc1ccc2c(c1)Oc1ncnc(Nc3ccc(F)c(Cl)c3)c1NC2` the same measures were 8.9 µM and 1 µM.
For `COc1ccc2c(c1)CNc1c(Nc3cccc(-c4ccccc4)c3)ncnc1O2` the same measures were 9.8 µM and > 10 µM.
Turning to `O=C(O)c1ccc2c(c1)CNc1c(Nc3ccc(F)c(Cl)c3)ncnc1O2`, the IC50 in assay [2] is > 30 µM; in assay [1], 4.4 µM.
Turning to `Clc1ccc2c(c1)CNc1c(Nc3cccc(Br)c3)ncnc1O2`, the half-inhibitory concentration (IC50) in assay [2] is > 30 µM; in assay [1], 3.4 µM.
Take `Fc1ccc2c(c1)CNc1c(NCc3ccccc3)ncnc1O2`: the IC50 in assay [2] was > 30 µM; in assay [1], 8.9 µM.
For `COc1cc2c(cc1OC)Oc1ncnc(Nc3cccc(Br)c3)c1NC2` the same measures were 0.47 µM and 0.34 µM.
For `C=CC(=O)Nc1ccc2c(c1)CNc1c(Nc3cccc(Br)c3)ncnc1O2` the same measures were 5.4 µM and 5.7 µM.
For `CS(=O)(=O)Nc1ccc2c(c1)CNc1c(Nc3cccc(Br)c3)ncnc1O2` the same measures were 7 µM and 4.1 µM.
In the case of `COc1cccc2c1CNc1c(Nc3cccc(Br)c3)ncnc1O2`, the IC50 in assay [1] was > 10 µM.
`Brc1ccc2c(c1)CNc1c(Nc3ccccc3)ncnc1O2` yielded an IC50 in assay [1] of 10 µM.
Consider `COc1ccc2c(c1)CNc1c(Nc3ccccc3)ncnc1O2`, for which the midpoint of inhibition in assay [1], the IC50, lay at 7.5 µM.
On to `COc1ccc2c(c1)CNc1c(Nc3cccc(Br)c3)ncnc1O2`, for which the IC50 in assay [2] turned out to be 1 µM; in assay [1], 3.1 µM.
The matching figures for `Brc1cccc(Nc2ncnc3c2NCc2cc(Br)ccc2O3)c1`: 7.2 µM and 1 µM.
The matching figures for `Fc1ccc2c(c1)CNc1c(Nc3ccc(F)c(Cl)c3)ncnc1O2`: 7.2 µM and 1 µM.
Regarding `Fc1ccc(Nc2ncnc3c2NCc2ccccc2O3)cc1Cl`, the figures for the half-maximal inhibitory concentration (IC50) in assay [2] and in assay [1] were 2.7 µM and 1.1 µM, respectively.
For `COc1ccc2c(c1)CNc1c(Nc3ccc(F)c(Cl)c3)ncnc1O2` the same measures were 2.4 µM and 0.9 µM.
